Measured values published in PubChem BioAssay AID256 (DTP/NCI, 2004).
Inconclusive results and toxic doses are left out. Rule for the calls: active = survival T/C of 150% or more; inactive = T/C below 125% in these data.

Test system: CD2F1 mice, L1210 leukemia ip, survival T/C
Experiment: NCI In Vivo Anticancer Drug Screen. Data for tumor model L1210 Leukemia (intraperitoneal) in CD2F1 (CDF1) mice
Conditions: endpoint: mean survival time, higher = longer survival
Summary of the method: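 Implant tumor; dose compound or vehicle; measure endpoint in both groups; report treated divided by control.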

[1] = dose: 100.0 mg/kg/injection, schedule: Q04DX002 (ip), vehicle: saline with Tween-80
[2] = dose: 100.0 mg/kg/injection, schedule: Q04DX003 (ip), vehicle: saline with Tween-80

Measured: T/C

CCCCCCCCCC[N+]1(C)CCC[N+](C)(CCCCCCCCCC)CC1 (stereo not drawn)
inactive: dose: 12.5 mg/kg/injection, schedule: Q01DX001 (ip), vehicle: saline with Tween-80 95 % of control | dose: 25.0 mg/kg/injection, schedule: Q01DX001 (ip), vehicle: saline with Tween-80 105 % of control

COC(=O)N(C)c1nc(-c2ccccc2)nc2nonc12
inactive: dose: 12.5 mg/kg/injection, schedule: Q01DX005 (ip), vehicle: saline with Tween-80 100 % of control | dose: 25.0 mg/kg/injection, schedule: Q01DX005 (ip), vehicle: saline with Tween-80 96 % of control | dose: 50.0 mg/kg/injection, schedule: Q01DX005 (ip), vehicle: saline with Tween-80 94 % of control | dose: 100.0 mg/kg/injection, schedule: Q01DX005 (ip), vehicle: saline with Tween-80 90 % of control

O=C(O)CCOc1cc(F)c(Cl)cc1Cl
inactive: [1] 94 % of control | dose: 200.0 mg/kg/injection, schedule: Q04DX002 (ip), vehicle: saline with Tween-80 86 % of control | dose: 400.0 mg/kg/injection, schedule: Q04DX002 (ip), vehicle: saline with Tween-80 86 % of control

CCOP(=O)(N=S=O)OCC
inactive: dose: 12.5 mg/kg/injection, schedule: Q04DX003 (ip), vehicle: saline 100 % of control | dose: 25.0 mg/kg/injection, schedule: Q04DX003 (ip), vehicle: saline 103 % of control | dose: 50.0 mg/kg/injection, schedule: Q04DX003 (ip), vehicle: saline 113 % of control

CCc1cccc(CC)c1NC(=S)NN
inactive: dose: 25.0 mg/kg/injection, schedule: Q04DX002 (ip), vehicle: saline with Tween-80 104 % of control | dose: 50.0 mg/kg/injection, schedule: Q04DX002 (ip), vehicle: saline with Tween-80 96 % of control | [1] 96 % of control

C[N+](C)(C)CC(=O)N/N=C\c1c(O)ccc2ccccc12
inactive: [2] 97 % of control

c1ccc(CCCCc2ccc3ccccc3n2)cc1
inactive: dose: 100.0 mg/kg/injection, schedule: Q01DX009 (ip), vehicle: saline with Tween-80 93 % of control | [2] 106 % of control | dose: 200.0 mg/kg/injection, schedule: Q01DX009 (ip), vehicle: saline with Tween-80 102 % of control | dose: 200.0 mg/kg/injection, schedule: Q04DX003 (ip), vehicle: saline with Tween-80 100 % of control | dose: 400.0 mg/kg/injection, schedule: Q01DX009 (ip), vehicle: saline with Tween-80 98 % of control | dose: 400.0 mg/kg/injection, schedule: Q04DX003 (ip), vehicle: saline with Tween-80 100 % of control

O=c1[nH]c(=O)n(C2CC(O)C(CO)O2)cc1C(F)(F)F (stereo not drawn)
active: dose: 16.0 mg/kg/injection, schedule: Q01DX009 (ip), vehicle: water 152 % of control | dose: 16.0 mg/kg/injection, schedule: Q03HX024 (ip), vehicle: water 171 % of control | dose: 64.0 mg/kg/injection, schedule: Q01DX009 (ip), vehicle: water 152 % of control | dose: 128.0 mg/kg/injection, schedule: Q03HX016 (ip), vehicle: water 157 % of control | dose: 256.0 mg/kg/injection, schedule: Q03HX008 (ip), vehicle: water 152 % of control | dose: 256.0 mg/kg/injection, schedule: Q03HX016 (ip), vehicle: water 163 % of control | dose: 512.0 mg/kg/injection, schedule: Q03HX008 (ip), vehicle: water 153 % of control
inactive: dose: 16.0 mg/kg/injection, schedule: Q03HX016 (ip), vehicle: water 123 % of control | dose: 64.0 mg/kg/injection, schedule: Q04DX003 (ip), vehicle: water 118 % of control | dose: 128.0 mg/kg/injection, schedule: Q03HX024 (ip), vehicle: water 109 % of control | dose: 128.0 mg/kg/injection, schedule: Q04DX003 (ip), vehicle: water 112 % of control | dose: 128.0 mg/kg/injection, schedule: Q08DX002 (ip), vehicle: water 100 % of control | dose: 256.0 mg/kg/injection, schedule: Q01DX001 (ip), vehicle: water 108 % of control | dose: 256.0 mg/kg/injection, schedule: Q01DX009 (ip), vehicle: water 112 % of control | dose: 256.0 mg/kg/injection, schedule: Q04DX003 (ip), vehicle: water 118 % of control | dose: 256.0 mg/kg/injection, schedule: Q08DX002 (ip), vehicle: water 109 % of control | dose: 512.0 mg/kg/injection, schedule: Q01DX001 (ip), vehicle: water 114 % of control | dose: 512.0 mg/kg/injection, schedule: Q08DX002 (ip), vehicle: water 112 % of control | dose: 1024.0 mg/kg/injection, schedule: Q08DX002 (ip), vehicle: water 114 % of control | dose: 2048.0 mg/kg/injection, schedule: Q01DX001 (ip), vehicle: water 121 % of control | dose: 2048.0 mg/kg/injection, schedule: Q08DX002 (ip), vehicle: water 124 % of control
